Data published in ChEMBL document CHEMBL5046281, “N-Aryl Mercaptopropionamides as Broad-Spectrum Inhibitors of Metallo-β-Lactamases” (J Med Chem, 2022).
pIC50: −log10 of the molar value. Activity calls are given as the source filed them. The rule behind the calls is not given here.

Test system: Pseudomonas aeruginosa
Test: Antibacterial activity against VIM-2 expressing Pseudomonas aeruginosa isolates assessed as inhibition of bacterial growth by microdilution method
Assay type: functional, organism-based
Conditions: not given

SMILES | Activity
NCc1cccc(NC(=O)CCS)c1 | inactive
CN(C)S(=O)(=O)c1ccc(NC(=O)CCS)cc1 | inactive
O=C(CCS)Nc1cccc(S(=O)(=O)O)c1 | inactive

Test system: Escherichia coli
Test: Antibacterial activity against IMP-1 expressing Escherichia coli isolates assessed as inhibition of bacterial growth by microdilution method
Assay type: functional, organism-based
Conditions: not given

SMILES | Activity
NCc1cccc(NC(=O)CCS)c1 | inactive
CN(C)S(=O)(=O)c1ccc(NC(=O)CCS)cc1 | inactive
O=C(CCS)Nc1cccc(S(=O)(=O)O)c1 | inactive

Test system: Pseudomonas aeruginosa
Test: Inhibition of Pseudomonas aeruginosa quorum sensing system LasB at 100 uM
Conditions: not given

inhibition | SMILES
Active | COC(=O)c1ccc(NC(=O)CCS)cc1

Test system: not listed separately
Test: Inhibition of Escherichia coli NDM-1 using fluorocillin as substrate incubated for 30 mins by fluorescence based assay
Conditions: not given

SMILES | pIC50
Nc1ccc(NC(=O)CCS)cc1 | 5.19
CS(=O)(=O)Nc1ccccc1NC(=O)CCS | 5.15
COC(=O)c1ccc(NC(=O)CCS)cc1 | 5.55
CN(C)S(=O)(=O)c1ccc(NC(=O)CCS)cc1 | 5.55

Second part, the compound after the results:

pIC50 | SMILES
5.26 | NCc1cccc(NC(=O)CCS)c1
5.89 | O=C(CCS)Nc1cccc(S(=O)(=O)O)c1

Test system: not listed separately
Test: Inhibition of Escherichia coli IMP-7 using fluorocillin as substrate incubated for 30 mins by fluorescence based assay
Conditions: not given

SMILES | pIC50
Nc1ccc(NC(=O)CCS)cc1 | 5.68
CS(=O)(=O)Nc1ccccc1NC(=O)CCS | < 5.00
COC(=O)c1ccc(NC(=O)CCS)cc1 | 5.96
CN(C)S(=O)(=O)c1ccc(NC(=O)CCS)cc1 | 5.68

Now from value to compound:

pIC50 | SMILES
5.29 | NCc1cccc(NC(=O)CCS)c1
5.44 | O=C(CCS)Nc1cccc(S(=O)(=O)O)c1

Test system: not listed separately
Test: Lipophilicity, log D of the compound at pH 7.4 by HPLC-MS analysis
Assay type: physicochemical
Conditions: buffer

SMILES | logD
Nc1ccc(NC(=O)CCS)cc1 | -0.31
CS(=O)(=O)Nc1ccccc1NC(=O)CCS | 1.1
COC(=O)c1ccc(NC(=O)CCS)cc1 | 1.95
CN(C)S(=O)(=O)c1ccc(NC(=O)CCS)cc1 | 1.7

Further lines, results first:

logD | SMILES
0.28 | NCc1cccc(NC(=O)CCS)c1
-1.35 | O=C(CCS)Nc1cccc(S(=O)(=O)O)c1

Test system: Escherichia coli
Test: Antibacterial activity against VIM-1 expressing Escherichia coli isolates assessed as inhibition of bacterial growth by microdilution method
Assay type: functional, organism-based
Conditions: not given

SMILES | Activity
NCc1cccc(NC(=O)CCS)c1 | inactive
CN(C)S(=O)(=O)c1ccc(NC(=O)CCS)cc1 | inactive
O=C(CCS)Nc1cccc(S(=O)(=O)O)c1 | inactive

Test system: Escherichia coli
Test: Antibacterial activity against NDM-1 expressing Escherichia coli isolates assessed as inhibition of bacterial growth by microdilution method
Assay type: functional, organism-based
Conditions: not given

SMILES | Activity
NCc1cccc(NC(=O)CCS)c1 | inactive
CN(C)S(=O)(=O)c1ccc(NC(=O)CCS)cc1 | inactive
O=C(CCS)Nc1cccc(S(=O)(=O)O)c1 | inactive

Molecular target: BlaVIM-1 (Escherichia coli, UniProt Q8GDC1)
Test: Inhibition of Escherichia coli VIM-1 using fluorocillin as substrate incubated for 30 mins by fluorescence based assay
Conditions: not given

SMILES | pIC50
Nc1ccc(NC(=O)CCS)cc1 | 6.30
CS(=O)(=O)Nc1ccccc1NC(=O)CCS | 5.72
COC(=O)c1ccc(NC(=O)CCS)cc1 | 7.00
CN(C)S(=O)(=O)c1ccc(NC(=O)CCS)cc1 | 6.10

More lines, now with the values ahead:

pIC50 | SMILES
6.00 | NCc1cccc(NC(=O)CCS)c1
5.80 | O=C(CCS)Nc1cccc(S(=O)(=O)O)c1
